Assay results taken from ChEMBL document CHEMBL5726278, “Cytochrome P450 inhibitors and their method of use” (2017).

Assay: Cyp21 Assay : Cyp21 assay protocol: AD293 cells that stably over-express recombinant CYP-21 were seeded in 96 well plates coated with poly D-lysine (10,000 cell per well) and incubated at 37° C. for 24 hours in Dulbecco's Modified Eagle Medium (DMEM) with Fetal Bovine Serum (FBS) that is stripped of hormones by charcoal treatment. The media is then removed, the cells are washed once with Phosphate buffer saline solution, and 50 μL Dulbecco's Modified Eagle Medium (DMEM) with Fetal Bovine Serum (FBS) that is stripped of hormones by charcoal treatment is added. Compounds of the disclosure are then added to the wells in eight concentration spanning 10 μM to 4.5 nM, and the plates are incubated for an additional 60 minutes at 37° C. 17α-OH Progesterone is then added (1.0 μM) and the plates are incubated for an additional 45 minutes at 37° C. After incubation, 50 uL of the supernatant (medium) is transferred into a fresh plate and 150 uL of an acetonitrile solution containing 200 ng/ml of Telmisartan is added. The sample is mixed and then placed in a centrifuge at 2000 rpm for 5 minutes.
Settings: AD293, 24 h

SMILES	IC50
O=S(=O)(C1CC1)N1CCN(c2ccc(/C=C/c3cc(Cl)cc(-c4ccncc4)c3)cc2)CC1	416 nM
[C-]#[N+]CS(=O)(=O)N1CCN(c2ccc(/C=C/c3cc(F)cc(Cn4ccnc4)c3)cc2)CC1	10000 nM
N=C(N)N1CCN(c2ccc(/C=C/c3cc(Cl)cc(-c4ccncc4)c3)cc2)CC1	10000 nM
CS(=O)(=O)N1CCN(c2ccc(/C=C/c3cc(F)cc(-c4ccncc4)c3)cc2)CC1	740 nM
Clc1cc(/C=C/c2ccc(N3CCN(C4=NCCO4)CC3)cc2)cc(Cn2ccnc2)c1	3500 nM
CC(C)S(=O)(=O)N1CCN(c2ccc(/C=C/c3cc(F)cc(Cn4ccnc4)c3)cc2)CC1	700 nM
Fc1cc(/C=C/c2ccc(N3CCN(C4=NCCO4)CC3)cc2)cc(Cn2ccnc2)c1	10000 nM
Fc1cc(/C=C/c2ccc(N3CCN(C4=NCCO4)CC3)cc2)cc(-c2ccncc2)c1	1200 nM
CS(=O)(=O)N1CCN(c2ccc(/C=C/c3cc(F)cc(Cn4ccnc4)c3)cc2)CC1	10000 nM
N=C(N)N1CCN(c2ccc(/C=C/c3cc(Cl)cc(Cn4ccnc4)c3)cc2)CC1	10000 nM
Fc1cc(/C=C/c2ccc(N3CCN(C4=NCCCO4)CC3)cc2)cc(Cn2ccnc2)c1	1000 nM
N=C(N)N1CCN(c2ccc(/C=C/c3cc(F)cc(-c4ccncc4)c3)cc2)CC1	10000 nM
N=C(N)N1CCN(c2ccc(/C=C/c3cc(F)cc(Cn4ccnc4)c3)cc2)CC1	10000 nM
Clc1cc(/C=C/c2ccc(N3CCN(C4=NCCO4)CC3)cc2)cc(-c2ccncc2)c1	1200 nM
CS(=O)(=O)N1CCN(c2ccc(/C=C/c3cc(Cl)cc(Cn4ccnc4)c3)cc2)CC1	2200 nM
CC(C)S(=O)(=O)N1CCN(c2ccc(/C=C/c3cc(Cl)cc(-c4ccncc4)c3)cc2)CC1	565 nM
CS(=O)(=O)N1CCN(c2ccc(/C=C/c3cc(Cl)cc(-c4ccncc4)c3)cc2)CC1	840 nM
